What was measured:
Format in all cases: cell-based
human P2X7 channel = biological target: T1, human P2X7 channel (Homo sapiens, UniProt Q99572); experiment: human P2X7 channel assay by automated patch-clamp (QPatch 16X); conditions: HEK-293 cells expressing P2X7; current evoked by 100 microM BzATP; whole-cell, held at -80 mV; read-out: human Q-Patch (activity range)
T1 construct: expressed in transfected cells; host or cells: HEK-293
T1 sequence (Q99572 1-595): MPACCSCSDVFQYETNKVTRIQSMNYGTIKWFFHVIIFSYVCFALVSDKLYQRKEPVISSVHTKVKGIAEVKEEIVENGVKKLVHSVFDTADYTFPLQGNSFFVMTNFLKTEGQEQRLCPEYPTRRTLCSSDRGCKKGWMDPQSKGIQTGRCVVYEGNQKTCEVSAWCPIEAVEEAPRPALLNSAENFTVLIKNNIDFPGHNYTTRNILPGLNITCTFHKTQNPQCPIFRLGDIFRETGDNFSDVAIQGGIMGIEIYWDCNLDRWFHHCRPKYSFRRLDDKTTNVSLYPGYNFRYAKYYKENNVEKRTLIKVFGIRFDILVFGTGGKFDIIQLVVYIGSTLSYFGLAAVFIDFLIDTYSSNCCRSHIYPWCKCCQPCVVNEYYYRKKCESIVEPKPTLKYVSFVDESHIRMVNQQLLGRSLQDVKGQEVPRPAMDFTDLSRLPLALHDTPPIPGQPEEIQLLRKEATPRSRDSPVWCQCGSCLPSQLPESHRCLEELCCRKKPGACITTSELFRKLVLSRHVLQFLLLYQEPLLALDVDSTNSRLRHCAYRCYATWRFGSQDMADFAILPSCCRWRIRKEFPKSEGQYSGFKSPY
Procedure, shortened: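 Whole-cell patch clamp on HEK-293 cells expressing P2X7, room temperature, held at −80 mV, CsF internal and NaCl external (pH 7.4). Currents evoked by 100 microM BzATP, four controls then with compound at 1, 10, 100 and 1000 nM; peak inward current normalized, IC50 from dose-response fit, reported as potency bins.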

humanP2X7 = biological target: T2, humanP2X7 (Homo sapiens, UniProt Q99572); experiment: P2X7 channel calcium-influx assay (Fluo-8, FLIPR TETRA), human P2X7; conditions: HEK-293 cells stably transfected with P2X7; Bz-ATP at EC80; low divalent cation buffer; read-out: humanP2X7 (activity range)
T2 construct: expressed in transfected cells; host or cells: HEK-293
T2 sequence (Q99572 1-595): T1 sequence (Q99572 1-595)
Procedure, shortened: (§1)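 HEK-293 cells stably expressing the respective species' P2X7, Fluo-8 NW loaded 1 h at RT in low divalent buffer (0.3 mM Ca2+, 0 mM Mg2+). Compound preincubated 5 min, then Bz-ATP at EC80; FLIPR calcium influx over 3 min. IC50 from % inhibition relative to reference antagonist A438079, reported as potency bins.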

mouseP2X7 = biological target: T3, mouseP2X7 (Mus musculus, UniProt Q9Z1M0); experiment: P2X7 channel calcium-influx assay (Fluo-8, FLIPR TETRA), mouse P2X7; conditions: HEK-293 cells stably transfected with P2X7; Bz-ATP at EC80; low divalent cation buffer; read-out: mouseP2X7 (activity range)
T3 construct: expressed in transfected cells; host or cells: HEK-293
T3 sequence (Q9Z1M0 1-595): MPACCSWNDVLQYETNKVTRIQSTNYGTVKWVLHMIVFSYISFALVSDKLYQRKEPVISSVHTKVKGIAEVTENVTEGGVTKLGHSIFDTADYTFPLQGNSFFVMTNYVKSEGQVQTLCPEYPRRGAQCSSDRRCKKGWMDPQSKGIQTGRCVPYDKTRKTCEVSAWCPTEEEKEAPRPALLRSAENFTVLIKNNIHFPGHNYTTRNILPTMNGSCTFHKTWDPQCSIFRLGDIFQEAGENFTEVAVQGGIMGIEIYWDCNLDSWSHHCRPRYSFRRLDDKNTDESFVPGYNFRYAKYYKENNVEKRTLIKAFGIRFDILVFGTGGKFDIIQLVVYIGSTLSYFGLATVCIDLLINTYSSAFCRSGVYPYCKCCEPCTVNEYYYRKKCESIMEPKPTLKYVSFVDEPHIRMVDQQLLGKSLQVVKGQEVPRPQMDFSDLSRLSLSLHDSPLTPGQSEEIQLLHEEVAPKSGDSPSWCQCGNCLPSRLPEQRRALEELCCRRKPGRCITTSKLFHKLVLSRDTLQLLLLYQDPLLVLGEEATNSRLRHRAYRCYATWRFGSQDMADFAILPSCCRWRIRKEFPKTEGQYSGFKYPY
Procedure, shortened: as §1

ratP2X7 = biological target: T4, ratP2X7 (Rattus norvegicus, UniProt Q64663); experiment: P2X7 channel calcium-influx assay (Fluo-8, FLIPR TETRA), rat P2X7; conditions: HEK-293 cells stably transfected with P2X7; Bz-ATP at EC80; low divalent cation buffer; read-out: ratP2X7 (activity range)
T4 construct: expressed in transfected cells; host or cells: HEK-293
T4 sequence (Q64663 1-595): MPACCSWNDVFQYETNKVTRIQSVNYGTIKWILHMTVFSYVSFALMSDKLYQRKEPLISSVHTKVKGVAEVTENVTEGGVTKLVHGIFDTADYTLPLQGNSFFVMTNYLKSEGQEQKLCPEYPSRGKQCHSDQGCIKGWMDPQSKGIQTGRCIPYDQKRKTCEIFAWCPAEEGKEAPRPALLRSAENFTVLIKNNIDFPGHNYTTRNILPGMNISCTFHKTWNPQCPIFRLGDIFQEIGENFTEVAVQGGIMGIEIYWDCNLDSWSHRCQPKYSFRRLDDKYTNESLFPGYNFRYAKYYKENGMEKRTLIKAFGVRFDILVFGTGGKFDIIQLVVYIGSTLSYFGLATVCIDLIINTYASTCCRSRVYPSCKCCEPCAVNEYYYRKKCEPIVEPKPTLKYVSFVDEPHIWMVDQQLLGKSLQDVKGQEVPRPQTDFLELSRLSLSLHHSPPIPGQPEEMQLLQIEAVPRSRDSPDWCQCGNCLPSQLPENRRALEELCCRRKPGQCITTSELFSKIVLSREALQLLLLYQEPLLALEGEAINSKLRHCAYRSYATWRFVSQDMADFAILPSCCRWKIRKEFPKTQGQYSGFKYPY
Procedure, shortened: as §1

SMILES: Cn1nc(Cc2ccc(F)cc2Cl)n(CC2CCC3(CC2)CC3)c1=O [Example 35, 5-(2-chloro-4-fluorobenzyl)-2-methyl-4-(spiro[2.5]octan-6-ylmethyl)-2,4-dihydro-3H-1,2,4-triazol-3-one]
- IC50 (human P2X7 channel): 100 to 1000 nM
- IC50 (humanP2X7): 200 to 1000 nM
- IC50 (mouseP2X7): 1000 to 10000 nM
- IC50 (ratP2X7): < 200 nM

SMILES: Cn1nc(Cc2ccc(F)cc2Cl)n(CCC2CCC(F)(F)CC2)c1=O [Example 36, 5-(2-chloro-4-fluorobenzyl)-4-(2-(4,4-difluorocyclohexyl)ethyl)-2-methyl-2,4-dihydro-3H-1,2,4-triazol-3-one]
- IC50 (human P2X7 channel): 100 to 1000 nM
- IC50 (humanP2X7): 200 to 1000 nM
- IC50 (mouseP2X7): 1000 to 10000 nM
- IC50 (ratP2X7): 200 to 1000 nM

SMILES: Cn1nc(Cc2ccccc2F)n(CC2CCCCCC2)c1=O [Example 37, 4-(cycloheptylmethyl)-5-(2-fluorobenzyl)-2-methyl-2,4-dihydro-3H-1,2,4-triazol-3-one]
- IC50 (human P2X7 channel): 100 to 1000 nM
- IC50 (humanP2X7): 200 to 1000 nM
- IC50 (mouseP2X7): 200 to 1000 nM
- IC50 (ratP2X7): < 200 nM

SMILES: Cn1nc(CC2CCCCC2)n(Cc2cc(-c3ncc(F)cn3)ccc2Cl)c1=O [Example 38, 4-(2-chloro-5-(5-fluoropyrimidin-2-yl)benzyl)-5-(cyclohexylmethyl)-2-methyl-2,4-dihydro-3H-1,2,4-triazol-3-one]
- IC50 (human P2X7 channel): 1000 to 10000 nM
- IC50 (humanP2X7): 200 to 1000 nM
- IC50 (mouseP2X7): 1000 to 10000 nM
- IC50 (ratP2X7): 200 to 1000 nM

SMILES: Cn1nc(Cc2ccccc2C(F)(F)F)n(CCC2CCC(F)(F)CC2)c1=O [Example 39, 4-(2-(4,4-difluorocyclohexyl)ethyl)-2-methyl-5-(2-(trifluoromethyl)benzyl)-2,4-dihydro-3H-1,2,4-triazol-3-one]
- IC50 (human P2X7 channel): 100 to 1000 nM
- IC50 (humanP2X7): 200 to 1000 nM
- IC50 (mouseP2X7): 1000 to 10000 nM
- IC50 (ratP2X7): 200 to 1000 nM

SMILES: Cn1nc(Cc2ccccc2C(F)(F)F)n(CC2CCC(C(F)(F)F)CC2)c1=O (stereo not drawn) [Example 40, 2-methyl-5-(2-(trifluoromethyl)benzyl)-4-((4-(trifluoromethyl)cyclohexyl)methyl)-2,4-dihydro-3H-1,2,4-triazol-3-one]
- IC50 (human P2X7 channel): 100 to 1000 nM
- IC50 (humanP2X7): < 200 nM
- IC50 (mouseP2X7): 1000 to 10000 nM
- IC50 (ratP2X7): < 200 nM

SMILES: Cn1nc(Cc2ccc(F)cc2Cl)n(CCC2CCC(C)(C)CC2)c1=O [Example 41, 5-(2-chloro-4-fluorobenzyl)-4-(2-(4,4-dimethylcyclohexyl)ethyl)-2-methyl-2,4-dihydro-3H-1,2,4-triazol-3-one]
- IC50 (human P2X7 channel): 1000 to 10000 nM
- IC50 (humanP2X7): 200 to 1000 nM
- IC50 (mouseP2X7): 10000 to 30000 nM
- IC50 (ratP2X7): 1000 to 10000 nM

SMILES: Cn1nc(Cc2ccccc2Cl)n(CC2CCC(F)(F)CC2)c1=O [Example 42, 5-(2-chlorobenzyl)-4-((4,4-difluorocyclohexyl)methyl)-2-methyl-2,4-dihydro-3H-1,2,4-triazol-3-one]
- IC50 (human P2X7 channel): 10 to 100 nM
- IC50 (humanP2X7): < 200 nM
- IC50 (mouseP2X7): 200 to 1000 nM
- IC50 (ratP2X7): < 200 nM

SMILES: O=c1n(CC2CC2)nc(Cc2c(F)cccc2Cl)n1CC1CCC(F)(F)CC1 [Example 43, 5-(2-chloro-6-fluorobenzyl)-2-(cyclopropylmethyl)-4-((4,4-difluorocyclohexyl)methyl)-2,4-dihydro-3H-1,2,4-triazol-3-one]
- IC50 (human P2X7 channel): 10 to 100 nM
- IC50 (humanP2X7): < 200 nM
- IC50 (mouseP2X7): < 200 nM
- IC50 (ratP2X7): < 200 nM

SMILES: O=c1n(CC(F)(F)F)nc(Cc2c(F)cccc2Cl)n1CC1CCC(F)(F)CC1 [Example 44, 5-(2-chloro-6-fluorobenzyl)-4-((4,4-difluorocyclohexyl)methyl)-2-(2,2,2-trifluoroethyl)-2,4-dihydro-3H-1,2,4-triazol-3-one]
- IC50 (human P2X7 channel): < 10 nM
- IC50 (humanP2X7): < 200 nM
- IC50 (mouseP2X7): < 200 nM
- IC50 (ratP2X7): < 200 nM

SMILES: Cn1nc(Cc2ccccc2F)n(CCC2CCC(C)(C)CC2)c1=O [Example 45, 4-(2-(4,4-dimethylcyclohexyl)ethyl)-5-(2-fluorobenzyl)-2-methyl-2,4-dihydro-3H-1,2,4-triazol-3-one]
- IC50 (human P2X7 channel): 1000 to 10000 nM
- IC50 (humanP2X7): 1000 to 10000 nM
- IC50 (mouseP2X7): 10000 to 30000 nM
- IC50 (ratP2X7): 1000 to 10000 nM

SMILES: Cn1nc(Cc2ccccc2F)n(CCC2CCC(F)(F)CC2)c1=O [Example 46, 4-(2-(4,4-difluorocyclohexyl)ethyl)-5-(2-fluorobenzyl)-2-methyl-2,4-dihydro-3H-1,2,4-triazol-3-one]
- IC50 (human P2X7 channel): 1000 to 10000 nM
- IC50 (humanP2X7): 1000 to 10000 nM
- IC50 (mouseP2X7): 1000 to 10000 nM
- IC50 (ratP2X7): 200 to 1000 nM

SMILES: Cn1nc(Cc2ccccc2F)n(CC2CCC3(CC2)CC3)c1=O [Example 47, 5-(2-fluorobenzyl)-2-methyl-4-(spiro[2.5]octan-6-ylmethyl)-2,4-dihydro-3H-1,2,4-triazol-3-one]
- IC50 (human P2X7 channel): 100 to 1000 nM
- IC50 (humanP2X7): 200 to 1000 nM
- IC50 (mouseP2X7): 1000 to 10000 nM
- IC50 (ratP2X7): < 200 nM

SMILES: Cn1nc(Cc2ccccc2C(F)(F)F)n(CC2CCC3(CC2)CC3)c1=O [Example 48, 2-methyl-4-(spiro[2.5]octan-6-ylmethyl)-5-(2-(trifluoromethyl)benzyl)-2,4-dihydro-3H-1,2,4-triazol-3-one]
- IC50 (human P2X7 channel): 100 to 1000 nM
- IC50 (humanP2X7): 200 to 1000 nM
- IC50 (mouseP2X7): 1000 to 10000 nM
- IC50 (ratP2X7): < 200 nM

SMILES: Cn1nc(Cc2ccccc2C(F)(F)F)n(CCC2CCC(C)(C)CC2)c1=O [Example 49, 4-(2-(4,4-dimethylcyclohexyl)ethyl)-2-methyl-5-(2-(trifluoromethyl)benzyl)-2,4-dihydro-3H-1,2,4-triazol-3-one]
- IC50 (human P2X7 channel): 1000 to 10000 nM
- IC50 (humanP2X7): 1000 to 10000 nM
- IC50 (mouseP2X7): 10000 to 30000 nM
- IC50 (ratP2X7): 10000 to 30000 nM

SMILES: O=c1n(Cc2ccccc2)nc(Cc2c(F)cccc2Cl)n1CC1CCC(F)(F)CC1 [Example 50, 2-benzyl-5-(2-chloro-6-fluorobenzyl)-4-((4,4-difluorocyclohexyl)methyl)-2,4-dihydro-3H-1,2,4-triazol-3-one]
- IC50 (human P2X7 channel): < 10 nM
- IC50 (humanP2X7): < 200 nM
- IC50 (mouseP2X7): < 200 nM
- IC50 (ratP2X7): < 200 nM

SMILES: Cn1nc(Cc2ccccc2F)n(CC2CCC(C(F)(F)F)CC2)c1=O (stereo not drawn) [Example 51, 5-(2-fluorobenzyl)-2-methyl-4-((4-(trifluoromethyl)cyclohexyl)methyl)-2,4-dihydro-3H-1,2,4-triazol-3-one]
- IC50 (human P2X7 channel): 100 to 1000 nM
- IC50 (humanP2X7): 200 to 1000 nM
- IC50 (mouseP2X7): 1000 to 10000 nM
- IC50 (ratP2X7): < 200 nM

SMILES: Cn1nc(Cc2ccc(F)cc2Cl)n(CC2CCC(C(F)(F)F)CC2)c1=O (stereo not drawn) [Example 52, 5-(2-chloro-4-fluorobenzyl)-2-methyl-4-((4-(trifluoromethyl)cyclohexyl)methyl)-2,4-dihydro-3H-1,2,4-triazol-3-one]
- IC50 (human P2X7 channel): 100 to 1000 nM
- IC50 (humanP2X7): 200 to 1000 nM
- IC50 (mouseP2X7): 1000 to 10000 nM
- IC50 (ratP2X7): < 200 nM
